These results are taken from US7629355B2 (priority 2003, dated 2009).

One series deals with opiate receptor. The experiment in a line: opiate receptor assay of Pert et al. The series is classed as binding. An excerpt:
(Raven Press, New York, N.Y.), at pp. 33-43. […] Int. Pharmacodyn.

The nature of series [1]: reversal of morphine-induced analgesia in the tail flick assay. As to conditions: reversal of analgesia induced by morphine. (Thermal pain tests record how soon the animal reacts.)
Series [2] can be described thus: induced Straub tail method (antagonist activity). As to conditions: for Antagonism (μmol/kg) Straub Tail: in vivo.
The target of series [3] is T1, κ receptor (Homo sapiens, UniProt P41145).
T1 construct: expressed in transfected cells; host or cells: CHO cells
T1 sequence (P41145 whole entry): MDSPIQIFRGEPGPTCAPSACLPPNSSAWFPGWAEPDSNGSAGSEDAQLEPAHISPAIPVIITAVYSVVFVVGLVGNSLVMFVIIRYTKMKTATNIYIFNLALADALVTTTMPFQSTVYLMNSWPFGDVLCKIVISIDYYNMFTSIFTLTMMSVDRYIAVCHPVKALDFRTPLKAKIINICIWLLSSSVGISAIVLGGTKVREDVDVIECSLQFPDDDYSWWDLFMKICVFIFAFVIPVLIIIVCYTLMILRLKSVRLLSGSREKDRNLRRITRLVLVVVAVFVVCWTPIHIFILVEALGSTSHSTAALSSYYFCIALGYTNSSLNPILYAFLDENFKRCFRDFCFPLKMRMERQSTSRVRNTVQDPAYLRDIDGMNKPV
In words: biochemical. The class given is biochemical.

Series [4] can be described thus: mouse jump test (physical dependence). The class given is in vivo. As to conditions: 30 min after 100 mg/kg naloxone on day 4; test compound ip days 1-3. Here is the method: Antagonist activity, considered a measure of nonaddictiveness, was measured by the opiate receptor assay of Pert et al. (1974) Mol. Pharmacol. 10:868. Antagonist activity was also measured using the induced Straub tail method as described by DeGraw et al. (1978) J. Med Chem. 21:415, and Blumberg et al. (1973) Advances in Chemical Psychopharmacology, Vol. 8, M. Braudy et al. eds. (Raven Press, New York, N.Y.), at pp. 33-43. A direct and simple assay measuring physical dependence is the mouse jump test described by Saelens et al. (1971) Arch. Int. Pharmacodyn. 190:213.
Physical dependence, a more direct measure of non-addictive properties than antagonist activity, was evaluated using the mouse jump test. Mice were injected intraperitoneally 5 times on day 1 with increasing doses of test compound ranging from 8-100 mg/kg body weight. On days 2 and 3 the mice were given 100 mg/kg 4 times. On day 4 all mice received 100 mg/kg of the antagonist naloxone in a single dose. The mice were then caged for 30 min, and a record was made of the number jumping during this time.

Series [5] addresses T2, μ receptor (Homo sapiens, UniProt P35372). The experiment in a line: pA2 analysis of antagonist activity against DAMGO dose response curve. The class given is biochemical.
The target in series [6] is T2, μ receptor. In words: biochemical. The class given is binding.
The target in series [7] is T2, μ receptor. In words: biochemical. The class given is biochemical.
The conditions of series [8]: in animals; cited from earlier work.
Series [9] addresses T3, δ receptor (Homo sapiens, UniProt P41143).
T3 construct: expressed in transfected cells; host or cells: CHO cells
The experiment in a line: biochemical. The series is classed as binding.

Series [10] has as its target T1, κ receptor. The experiment in a line: biochemical. The class given is binding.
For series [11], the target named is T3, δ receptor. In words: biochemical. The series is classed as biochemical.
[12] abbreviates: −NaCl, read-out: Opiate Receptor Inhibition (IC50, nM) −NaCl.
Where [13] appears, read: +NaCl, read-out: Opiate Receptor Inhibition (IC50, nM) +NaCl.

Where a name gives a salt, the structure may show the parent alone. Read-outs that look alike come from different tables or passages of the source. Some results are limits rather than exact numbers.

T3 sequence (P41143 whole entry): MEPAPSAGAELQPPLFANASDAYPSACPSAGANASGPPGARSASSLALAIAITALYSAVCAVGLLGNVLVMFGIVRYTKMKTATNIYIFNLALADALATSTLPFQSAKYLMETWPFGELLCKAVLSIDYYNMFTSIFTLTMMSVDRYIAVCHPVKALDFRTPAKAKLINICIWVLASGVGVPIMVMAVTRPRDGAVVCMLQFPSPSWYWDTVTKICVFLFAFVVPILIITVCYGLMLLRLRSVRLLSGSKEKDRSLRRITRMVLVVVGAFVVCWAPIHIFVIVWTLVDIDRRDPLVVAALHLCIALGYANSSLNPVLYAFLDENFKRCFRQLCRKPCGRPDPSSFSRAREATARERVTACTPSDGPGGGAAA
T2 sequence (P35372 whole entry): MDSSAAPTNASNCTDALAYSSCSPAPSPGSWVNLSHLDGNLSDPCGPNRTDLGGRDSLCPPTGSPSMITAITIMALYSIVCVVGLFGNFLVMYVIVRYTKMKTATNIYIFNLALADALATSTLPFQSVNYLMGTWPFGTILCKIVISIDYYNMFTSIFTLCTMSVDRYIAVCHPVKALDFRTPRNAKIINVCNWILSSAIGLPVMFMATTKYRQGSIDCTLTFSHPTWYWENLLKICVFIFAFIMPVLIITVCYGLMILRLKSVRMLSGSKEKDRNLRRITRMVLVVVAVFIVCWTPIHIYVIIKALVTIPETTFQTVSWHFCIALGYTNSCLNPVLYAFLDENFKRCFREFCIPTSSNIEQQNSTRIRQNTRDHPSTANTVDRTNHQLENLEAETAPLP

With `CC(C1CC1)N1CCC23c4c5ccc(O)c4OC2C(O)C=CC3C1C5` (single isomer, unassigned; diastereomer b) [N-α-methylcyclopropylmethyl-normorphine (S isomer), N-methylcyclopropylmethyl-normorphine (diastereomer B)], the melting point is 209 to 210 °C. On opiate receptor (setting [12]), the 50% inhibitory concentration (IC50) came to 0.23 nM. In addition, the “Antagonism (μmol/kg) Tail Flick” value in [1] was more than 213 µmol/kg.

Take `CC(C1CC1)N1CCC23c4c5ccc(O)c4OC2C(O)C=CC3C1C5` (mixture of isomers) [N-α-methylcyclopropylmethyl-normorphine (mixture)] [N-[(1R,S)-1-Cyclopropylethyl]-Normorphine]: the “antagonist potency relative to nalorphine” value in series [2] (Straub tail method) is given as “about one-fourth”. Also, the “Antagonism (μmol/kg) Straub Tail” value in series [2] came to 4.5 µmol/kg. Further, the half-inhibitory concentration (IC50) was 6 nM on opiate receptor (setting [13]) and 3 nM at opiate receptor (setting [12]).

Consider `C=CCN1CC[C@]23c4c5ccc(O)c4O[C@H]2[C@@H](O)C=C[C@H]3[C@H]1C5` [nalorphine, reference compound], for which the concentration for half-maximal inhibition (IC50) at opiate receptor (setting [13]) was 6 nM; at opiate receptor (setting [12]), 2 nM. Moreover, the “Antagonism (μmol/kg) Tail Flick” value in series [1] came to 2.04 µmol/kg.

`C[C@@H](NC(=O)[C@@H](N)Cc1ccc(O)cc1)C(=O)NCC(=O)N(C)[C@@H](Cc1ccccc1)C(=O)NCCO` [DAMGO, [D-Ala^2, NMePhe^4, Gly^5-ol]-enkephalin]: the “κ % Stim” value at κ receptor [3] was 62%.

Regarding “[D-Pen^2,D-Pen^5]-enkephalin [DPDPE, reference compound]”, the “κ % Stim” value at κ receptor [3] is recorded as 77%.

As to `CN1CC[C@]23c4c5ccc(O)c4O[C@H]2[C@@H](O)C=C[C@H]3[C@H]1C5` [morphine], the “number of mice jumping” value in series [4] was 10/10. Besides, the “Antagonism (μmol/kg) Straub Tail” value in series [2] amounted to 1 µmol/kg. The “Antagonism (μmol/kg) Tail Flick” value in series [1] stood at 2 µmol/kg.

As for `CCC(C)N1CCC23c4c5ccc(O)c4OC2C(O)C=CC3C1C5` [N-sec-butyl normorphine (S), reference compound], the “Antagonism (μmol/kg) Straub Tail” value in [2] was determined as 7.4 µmol/kg. For the same molecule, the IC50 at opiate receptor (setting [13]) came to 62 nM; at opiate receptor (setting [12]), 28 nM.

`CC(C1CC1)N1CCC23c4c5ccc(O)c4OC2C(O)C=CC3C1C5` (mixture of isomers) (as salt: salt) [N-α-methylcyclopropylmethyl-normorphine (mixture)] [N-[(1R,S)-1-Cyclopropylethyl]-Normorphine] had a melting point of 248 to 250 °C.

In the case of `CCC(C)N1CCC23c4c5ccc(O)c4OC2C(O)C=CC3C1C5` [N-sec-butyl normorphine (R), reference compound], the “Antagonism (μmol/kg) Straub Tail” value in series [2] came out at 16.2 µmol/kg. Further, the figures for the IC50 at opiate receptor (setting [13]) and at opiate receptor (setting [12]) were 110 nM and 60 nM, respectively.

In the case of (−)SKF 10,047, on κ receptor [3], the “κ % Stim” value was found to be 49 ± 13%. Further, the EC50 at κ receptor [3] (read-out: κ EC50) was 5.38 ± 2.3 nM.

`C[C@H](C1CC1)N1CC[C@]23c4c5ccc(O)c4O[C@H]2[C@@H](O)C=C[C@H]3[C@H]1C5` [compound 1, N-[(1R)-1-cyclopropylethyl]-normorphine] returned a Kb at μ receptor [5] of 1.43 ± 0.16 nM. In addition, at μ receptor [5] (n=6), the Slope is given as −1.04 and the pA2 was 8.84±0.06. The molecule further registered an inhibitory constant (Ki) at μ receptor [6] of 0.35 ± 0.06 nM. Also, on κ receptor [3], the EC50 was 15.2 ± 2.5 nM, the “functional character at κ” value is on record as “partial agonist” and the “κ % Stim” value is 63 ± 1%. The “affinity in the opiate assay relative to N-sec-butyl-normorphine” value in the series with opiate receptor (relative to N-sec-butyl-normorphine) is given as “about 122 times”. In the series on opiate receptor (relative to morphine), the “affinity in the opiate assay relative to morphine” value is listed as “over 43 times”. Besides, on opiate receptor (setting [12]), the half-inhibitory concentration (IC50) turned out to be 7 nM. Moreover, on μ receptor [7], the concentration for a half-maximal effect (EC50) was more than 10000 nM and the “functional character at the μ receptor” value is recorded as “pure antagonist”. For the same molecule, the “Antagonism (μmol/kg) Tail Flick” value in series [1] is more than 213 µmol/kg. Moreover, in series [8], the respiratory depression entry is on record as “free of respiratory depression” and the therapeutic index entry is “high therapeutic index”. The molecule further came in with a Ki on δ receptor [9] of 3.97 ± 0.98 nM. Further, the inhibitory constant (Ki) on κ receptor [10] came to 0.43 ± 0.11 nM. At δ receptor [11], the half-maximal effective concentration (EC50) came out at 39.6 ± 6.3 nM, the “functional character at δ” value was “partial agonist” and the “δ % Stim” value turned out to be 22 ± 6%.

For the molecule `C[C@H]1[C@H]2Cc3ccc(O)cc3[C@]1(C)CCN2CC1CC1` [Cyclazocine, reference compound], at κ receptor [3], the EC50 is 0.8 ± 0.2 nM and the “κ % Stim” value is 80%. Moreover, the “μ % Stim” value at μ receptor [7] is 33 ± 18%. Also, at δ receptor [11], the EC50 was determined as 2.9 ± 1.9 nM and the “δ % Stim” value was 82 ± 9%.

The melting point is the temperature of the solid-liquid transition. For orientation: IC50 means the midpoint of a concentration-inhibition curve. As usually defined, the EC50 is the concentration giving half of the maximal effect. As usually defined, the Kb is the affinity of an antagonist, worked out from how it opposes an agonist. As usually defined, the pA2 is the negative logarithm of the molar antagonist concentration that doubles the agonist concentration needed for the same response. A word on the Ki: it is the dissociation constant of the complex between target and ligand, obtained from inhibition or displacement.
